Test results published in patent US6313310A, “4-and 5-alkynyloxindoles and 4-and 5-alkenyloxindoles” (Hoffmann-La Roche Inc., priority 1999, dated 2001).

Biological target: rat SAPK (isoform β) (Rattus norvegicus, UniProt P49187)
Assay: SAPK FlashPlate Assay (inhibition of cJun phosphorylation)
Assay type: biochemical
Conditions: Table I B; for inhibition at 1 µM: Concentration <1.0 μM
Description: "IC50 " refers to the concentration of a particular 4- or 5-alkynyloxindole or 4- or 5-alkenyloxindole required to inhibit 50% of cJun phosphorylation, which is a measure of inhibition of SAPK activity. IC50 can be measured, inter alia, using the assay described herein in Example 102.
Human JNK is highly homologous to rat SAPK. To measure the inhibitory activity of test compounds, the compounds were tested in the rat SAPK assay.
For the SAPK assay, purified GST-cJun (a chimeric protein containing cjun, a natural substrate of JNK) was coated on 96 well FlashPlates (New England Nuclear, Boston, Mass.). Purified rat SAPK (isoform β, Kyriakis et al. supra) was preincubated with preparations containing MEKK-1 and MKK4 for 30 minutes at 37° C. in assay buffer containing 25 mM HEPES, pH 7.5, 150 mM NaCl, 20 mM MgCl2, 2 mM DTT, 0.001% Tween 20, 1 μM ATP freshly added. In the preincubation step, MEKK-1 phosphorylates and activates MKK-4, which in turn phosphorylates and activates SAPK. The activated SAPK was then added to the cJun coated FlashPlates along with ^33 P-ATP (0.32 μCi per reaction) and test compounds. The plates were incubated for 30 minutes at 37° C., then washed with PBS, 0.01% Tween 20, and counted in the Topcount scintillation counter (Packard Instrument Co., Downers Grove, Ill.). Dilutions of compounds were tested in duplicate in each assay. The percent inhibition of cJun phosphorylation (a measure of inhibition of SAPK activity) was determined by the following formula: [formula]
where "test compound" refers to the average counts per minute of the test duplicates, "nonspecific" refers to the average counts per minute when no SAPK was added, and "total" refers to the average counts per minute when no compound was added.

Chain of rat SAPK (isoform β) (P49187 whole entry, canonical isoform): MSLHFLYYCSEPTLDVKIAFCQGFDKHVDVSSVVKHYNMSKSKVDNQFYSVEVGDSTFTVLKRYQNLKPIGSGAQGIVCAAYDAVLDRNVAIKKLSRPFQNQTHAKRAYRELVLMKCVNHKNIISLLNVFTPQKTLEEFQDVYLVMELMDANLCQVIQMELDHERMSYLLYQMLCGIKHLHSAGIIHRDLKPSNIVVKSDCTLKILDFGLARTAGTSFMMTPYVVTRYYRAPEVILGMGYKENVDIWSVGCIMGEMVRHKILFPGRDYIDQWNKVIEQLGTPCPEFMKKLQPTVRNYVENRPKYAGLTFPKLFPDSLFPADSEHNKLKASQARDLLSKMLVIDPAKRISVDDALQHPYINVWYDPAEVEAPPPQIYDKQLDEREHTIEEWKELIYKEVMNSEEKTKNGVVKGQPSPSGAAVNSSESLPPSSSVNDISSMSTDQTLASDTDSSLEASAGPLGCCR

SMILES | inhibition at 1 µM [%] | inhibition at 0.1 µM (Concentration <0.10 μM) [%]
COc1cc[nH]c1/C=C1\C(=O)Nc2cccc(C#CC(O)c3cccn3C)c21 (racemic) [AA, rac-(Z)-1,3-Dihydro-4-[3-hydroxy-3-(1-methyl-pyrrol-2-yl)-1-propynyl]-3-[(3-methoxy-1H-pyrrol-2-yl)methylene]-2H-indol-2-one] | > 50 | 
COc1cc(C(O)C#Cc2cccc3c2/C(=C/c2[nH]ccc2OC)C(=O)N3)ccc1O (racemic) [O, rac-(Z)-1,3-Dihydro-4-[3-hydroxy-3-(4-hydroxy-3-methoxyphenyl)-1-propynyl]-3-[(3-methoxy-1H-pyrrol-2-yl)methylene]-2H-indol-2-one] | > 50 | 
COc1cc[nH]c1/C=C1\C(=O)Nc2ccc(NC(=O)Cc3cccs3)c(C#Cc3cccnc3)c21 [III] |  | < 50
